Key:
[1] = test system: MITF; test: Western blot, MITF levels; format: cell-based, human; conditions: melanoma cell lines, SAB298 0.5 µM, UM-164 1 µM, 6 hrs, SCH772984 0.5 µM
Protocol: We used standard techniques to identify changes in intracellular signaling in response to various treatments. Briefly, melanoma cells were incubated with test compounds, using DMSO as a control, collected by scraping on ice, and lysed in RIPA buffer supplemented with protease and phosphatase inhibitors (MA #78428, and #78425, respectively, Thermo Fisher Scientific, Waltham, MA). Protein concentrations were measured with the BioRad kit (Bio-Rad Laboratories, Hercules, CA), SDS sample buffer was added, extracts were heated at 95°C, sonicated and centrifuged. Cell extracts (20 µg/lane) were fractionated in 3%–8% or 4–12 % tris-acetate gel (NP0006, NuPAGE Life Technologies). We probed with the following primary antibodies: phospho-SRC Tyr416 (CST #2101S), pSRC Tyr527 (#2105), SRC (#2108), pPI3K p85 Y458/p55 Y199 (#4228), LYN (C13F9, #2796), FYN (#4023), phospho-MEK1/2 pSer217/221 (#9121), MEK1/2, phospho-ERK2 pThr202/Tyr204 (#9101), ERK1/2 (#9107), phospho-p38 kinase T180/Y182 (#9216), p38 kinase (#9212), PP2A (#2259), pSHP2 Y542 (#3751), SHP2 (D50F2, #3397), ERBB2 (D8F12 XP(R), #4290), phospho-ERBB2 Y1196 (D66B7 #6942), MYC (D84C12, #5605); GAPDH (14C10, #2118), all from Cell Signaling Technology, Beverly, MA; phospho-PP2A Y307 (AF3989), and MITF (clone D5, #AF5769) from R&D Systems, Inc., Minneapolis, MN; p27KIP1 (#10241) and YES (#610375) from BD Biosciences, San Jose, CA; Cyclin D1 (#04-221) and β-actin (mouse mAb A5316) from MilliporeSigma, St. Louis, MO; PI3K Antibody (p85 alpha, NSJ R30480) from Bioreagents, 9921 Carmel Mountain Rd #352, San Diego, CA. All antibodies were used at the concentrations recommended by the manufacturers.

[2] = test system: phospho-ERBB2 Y1196; test: Western blot, phospho-ERBB2; format: cell-based, human; conditions: YUSOC, YUROB, YUSIV, YUTOGS
Protocol: We used standard techniques to identify changes in intracellular signaling in response to various treatments. Briefly, melanoma cells were incubated with test compounds, using DMSO as a control, collected by scraping on ice, and lysed in RIPA buffer supplemented with protease and phosphatase inhibitors (MA #78428, and #78425, respectively, Thermo Fisher Scientific, Waltham, MA). Protein concentrations were measured with the BioRad kit (Bio-Rad Laboratories, Hercules, CA), SDS sample buffer was added, extracts were heated at 95°C, sonicated and centrifuged. Cell extracts (20 µg/lane) were fractionated in 3%–8% or 4–12 % tris-acetate gel (NP0006, NuPAGE Life Technologies). […]

[3] = target: T1, EGFR (Homo sapiens, UniProt P00533); test: KiNativ in situ kinase profiling in melanoma cell lysates; format: binding; conditions: 3-point dose response
T1 construct: we tested the endogenous kinome response to SAB298; host or cells: YUSIV and YUSIK melanoma cell lysates
Protocol: (§1) The effect of SAB298 on a panel of 36 recombinant kinases, was screed with the radioisotope filter binding assay employing 10 concentrations of the compound with 10 µM ATP (Reaction Biology Corporation, Malvern, PA). In addition, we tested the endogenous kinome response to SAB298 (0.05 µM, 0.5 µM and 5 µM) in lysates from two melanoma cell lines (YUSIV and YUSIK) employing the KiNativ® platform (ActivX Biosciences Inc., La Jolla, CA). KiNativ® is a robust, high performance mass spectrometry (LC-MS^2) assay that uses biotinylated probes to measure relevant changes in the affinity to the ATP-binding sites of 205 native kinases as a function of cellular context. We also validated SAB298 effect on the activity of SRC-family kinases by probing for phosphorylated Y416, the marker of activated SFKs, with anti-IEDNEpYTAR antibodies (also known as Y419, #2101, Cell Signaling Technology, Beverly, MA). In some cases the cells were incubated overnight with 20 µM proteasome inhibitor MG-132 (CAS 133407-82-6, Millipore Sigma, Burlington, MA) to rescue degradation.

[4] = target: T2, MEK5 (Homo sapiens, UniProt Q13163); test: as above; format: binding; conditions: 3-point dose response
T2 construct: we tested the endogenous kinome response to SAB298; host or cells: YUSIV and YUSIK melanoma cell lysates
Protocol: as §1

[5] = target: T3, ERBB3 (Homo sapiens, UniProt P21860); test: as above; format: binding; conditions: 3-point dose response
T3 construct: we tested the endogenous kinome response to SAB298; host or cells: YUSIV and YUSIK melanoma cell lysates
Protocol: as §1

[6] = target: T4, BRAF (Homo sapiens, UniProt P15056); test: Radioisotope filter activity assay, recombinant kinase; format: biochemical; conditions: 10 point dose response, 10 µM ATP
T4 construct: purchased Reaction Biology Corporation
Protocol: as §1
(§2) Supplemntary Table 3: Radioisotope filter activity assay Tests for SAB298 target protein
(§3) *These are results from 10 point dose response test employed with 10 µM ATP. […]
(§4) SRC TRCN0000195339 3ʹUTR […]
(§5) YES TRCN0000001611 CDS […]
(§6) FYN TRCN0000003099 CDS […]
(§7) LY N TRCN0000230901 CDS […]

[7] = target: T5, IGF1R (Homo sapiens, UniProt P08069); test: as above; format: biochemical; conditions: 10 point dose response, 10 µM ATP
T5 construct: purchased Reaction Biology Corporation
Protocol: as §1, §2, §3, §4, §5, §6, §7

[8] = target: T6, ARAF (Homo sapiens, UniProt P10398); test: as above; format: biochemical; conditions: 10 point dose response, 10 µM ATP
T6 construct: purchased Reaction Biology Corporation
Protocol: as §1, §2, §3, §4, §5, §6, §7

[9] = target: T7, BTK (Homo sapiens, UniProt Q06187); test: as above; format: biochemical; conditions: 10 point dose response, 10 µM ATP
T7 construct: purchased Reaction Biology Corporation
Protocol: as §1, §2, §3, §4, §5, §6, §7

[10] = target: T8, BLK (Homo sapiens, UniProt P51451); test: as above; format: biochemical; conditions: 10 point dose response, 10 µM ATP
T8 construct: purchased Reaction Biology Corporation
Protocol: as §1, §2, §3, §4, §5, §6, §7

[11] = target: T9, ABL1 (Homo sapiens, UniProt P00519); test: as above; format: biochemical; conditions: 10 point dose response, 10 µM ATP
T9 construct: purchased Reaction Biology Corporation
Protocol: as §1, §2, §3, §4, §5, §6, §7

[12] = target: T10, FLT3 (Homo sapiens, UniProt P36888); test: as above; format: biochemical; conditions: 10 point dose response, 10 µM ATP
T10 construct: purchased Reaction Biology Corporation
Protocol: as §1, §2, §3, §4, §5, §6, §7

[13] = target: T11, CDK4/Cyclin D1 (Homo sapiens, UniProt P11802); test: as above; format: biochemical; conditions: 10 point dose response, 10 µM ATP
T11 construct: purchased Reaction Biology Corporation
Protocol: as §1, §2, §3, §4, §5, §6, §7

[14] = target: T12, HCK (Homo sapiens, UniProt P08631); test: as above; format: biochemical; conditions: 10 point dose response, 10 µM ATP
T12 construct: purchased Reaction Biology Corporation
Protocol: as §1, §2, §3, §4, §5, §6, §7

[15] = target: T13, WEE1 (Homo sapiens, UniProt P30291); test: as above; format: biochemical; conditions: 10 point dose response, 10 µM ATP
T13 construct: purchased Reaction Biology Corporation
Protocol: as §1, §2, §3, §4, §5, §6, §7

[16] = target: T14, BRK (Homo sapiens, UniProt Q13882); test: as above; format: biochemical; conditions: 10 point dose response, 10 µM ATP
T14 construct: purchased Reaction Biology Corporation
Protocol: as §1, §2, §3, §4, §5, §6, §7

[17] = target: T15, RAF1 (Homo sapiens, UniProt P04049); test: as above; format: biochemical; conditions: 10 point dose response, 10 µM ATP
T15 construct: purchased Reaction Biology Corporation
Protocol: as §1, §2, §3, §4, §5, §6, §7

[18] = target: T16, FYN (Homo sapiens, UniProt P06241); test: as above; format: biochemical; conditions: 10 point dose response, 10 µM ATP
T16 construct: purchased Reaction Biology Corporation
Protocol: as §1, §2, §3, §4, §5, §6, §7

T2 sequence (Q13163 whole entry): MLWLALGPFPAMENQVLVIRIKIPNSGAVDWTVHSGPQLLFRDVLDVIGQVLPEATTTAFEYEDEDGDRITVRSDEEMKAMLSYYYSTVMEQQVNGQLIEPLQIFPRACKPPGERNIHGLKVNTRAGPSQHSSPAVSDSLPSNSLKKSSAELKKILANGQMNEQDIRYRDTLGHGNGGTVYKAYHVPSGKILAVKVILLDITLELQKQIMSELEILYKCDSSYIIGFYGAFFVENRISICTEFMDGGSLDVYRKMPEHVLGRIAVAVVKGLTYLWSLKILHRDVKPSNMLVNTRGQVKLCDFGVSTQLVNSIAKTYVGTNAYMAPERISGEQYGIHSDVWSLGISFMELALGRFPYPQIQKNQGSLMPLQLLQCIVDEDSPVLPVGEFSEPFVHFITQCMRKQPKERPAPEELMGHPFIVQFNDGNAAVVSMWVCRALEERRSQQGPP
T3 sequence (P21860 20-1342): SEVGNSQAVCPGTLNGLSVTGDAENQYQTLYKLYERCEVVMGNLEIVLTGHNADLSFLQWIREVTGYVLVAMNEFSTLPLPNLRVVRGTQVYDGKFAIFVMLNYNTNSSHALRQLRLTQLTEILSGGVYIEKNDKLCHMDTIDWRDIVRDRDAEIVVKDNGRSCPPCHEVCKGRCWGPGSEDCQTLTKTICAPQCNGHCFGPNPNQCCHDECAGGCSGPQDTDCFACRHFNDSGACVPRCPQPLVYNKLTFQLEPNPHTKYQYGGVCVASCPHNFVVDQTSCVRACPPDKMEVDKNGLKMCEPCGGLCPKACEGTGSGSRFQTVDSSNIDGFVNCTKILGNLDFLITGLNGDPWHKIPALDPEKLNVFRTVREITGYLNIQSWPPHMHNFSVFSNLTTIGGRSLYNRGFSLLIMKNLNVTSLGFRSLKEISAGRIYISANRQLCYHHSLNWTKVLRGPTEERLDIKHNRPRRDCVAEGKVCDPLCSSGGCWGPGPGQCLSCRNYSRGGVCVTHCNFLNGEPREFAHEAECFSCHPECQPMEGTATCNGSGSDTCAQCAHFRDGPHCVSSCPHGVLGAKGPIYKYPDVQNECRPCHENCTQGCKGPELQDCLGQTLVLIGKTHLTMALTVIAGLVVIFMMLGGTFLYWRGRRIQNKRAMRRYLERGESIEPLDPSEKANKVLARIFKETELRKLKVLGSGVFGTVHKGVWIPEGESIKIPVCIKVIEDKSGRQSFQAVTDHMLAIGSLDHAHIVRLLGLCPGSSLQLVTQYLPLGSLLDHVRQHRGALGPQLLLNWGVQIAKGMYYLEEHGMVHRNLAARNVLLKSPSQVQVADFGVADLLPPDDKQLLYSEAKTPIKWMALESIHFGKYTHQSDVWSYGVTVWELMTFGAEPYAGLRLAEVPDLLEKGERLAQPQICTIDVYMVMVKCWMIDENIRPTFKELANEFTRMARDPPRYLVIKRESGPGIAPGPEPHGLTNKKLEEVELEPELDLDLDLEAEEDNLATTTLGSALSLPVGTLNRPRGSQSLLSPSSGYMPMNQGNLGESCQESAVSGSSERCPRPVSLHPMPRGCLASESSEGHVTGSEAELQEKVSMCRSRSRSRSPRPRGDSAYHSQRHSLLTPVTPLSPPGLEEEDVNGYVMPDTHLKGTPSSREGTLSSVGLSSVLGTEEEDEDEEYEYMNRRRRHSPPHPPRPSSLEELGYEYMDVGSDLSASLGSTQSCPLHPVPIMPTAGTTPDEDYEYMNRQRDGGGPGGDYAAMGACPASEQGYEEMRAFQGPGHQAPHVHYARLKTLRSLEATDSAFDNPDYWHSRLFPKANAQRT
T1 sequence (P00533 25-1210): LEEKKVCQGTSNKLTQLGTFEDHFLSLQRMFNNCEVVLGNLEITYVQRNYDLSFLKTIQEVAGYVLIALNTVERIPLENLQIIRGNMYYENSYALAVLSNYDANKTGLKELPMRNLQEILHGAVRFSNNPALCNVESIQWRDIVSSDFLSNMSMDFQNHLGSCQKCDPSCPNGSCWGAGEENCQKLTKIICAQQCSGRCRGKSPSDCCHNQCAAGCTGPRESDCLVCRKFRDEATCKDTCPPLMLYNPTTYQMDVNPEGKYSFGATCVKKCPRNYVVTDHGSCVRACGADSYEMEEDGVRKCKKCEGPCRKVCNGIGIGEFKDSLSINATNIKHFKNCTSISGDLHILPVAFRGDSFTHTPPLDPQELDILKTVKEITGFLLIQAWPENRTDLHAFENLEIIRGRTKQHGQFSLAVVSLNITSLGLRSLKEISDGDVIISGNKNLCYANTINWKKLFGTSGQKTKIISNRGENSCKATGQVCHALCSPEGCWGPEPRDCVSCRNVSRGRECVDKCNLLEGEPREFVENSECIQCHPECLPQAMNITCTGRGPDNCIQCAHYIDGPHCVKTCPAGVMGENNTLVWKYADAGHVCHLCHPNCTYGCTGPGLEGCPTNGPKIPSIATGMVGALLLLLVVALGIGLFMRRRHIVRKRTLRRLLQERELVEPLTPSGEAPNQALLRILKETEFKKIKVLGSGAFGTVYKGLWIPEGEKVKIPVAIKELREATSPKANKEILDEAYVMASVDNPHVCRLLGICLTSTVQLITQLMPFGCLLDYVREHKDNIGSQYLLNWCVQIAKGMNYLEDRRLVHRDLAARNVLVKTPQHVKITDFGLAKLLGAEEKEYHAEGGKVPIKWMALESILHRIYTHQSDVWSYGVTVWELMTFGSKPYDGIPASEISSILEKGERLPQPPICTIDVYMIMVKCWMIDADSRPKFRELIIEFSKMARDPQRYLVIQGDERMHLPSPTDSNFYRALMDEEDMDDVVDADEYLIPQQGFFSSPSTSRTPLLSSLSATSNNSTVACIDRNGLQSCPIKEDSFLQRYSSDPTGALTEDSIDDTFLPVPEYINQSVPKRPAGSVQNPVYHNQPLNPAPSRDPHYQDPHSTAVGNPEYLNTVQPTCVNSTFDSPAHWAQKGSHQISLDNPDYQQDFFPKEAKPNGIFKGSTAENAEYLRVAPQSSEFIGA
T10 sequence (P36888 27-993): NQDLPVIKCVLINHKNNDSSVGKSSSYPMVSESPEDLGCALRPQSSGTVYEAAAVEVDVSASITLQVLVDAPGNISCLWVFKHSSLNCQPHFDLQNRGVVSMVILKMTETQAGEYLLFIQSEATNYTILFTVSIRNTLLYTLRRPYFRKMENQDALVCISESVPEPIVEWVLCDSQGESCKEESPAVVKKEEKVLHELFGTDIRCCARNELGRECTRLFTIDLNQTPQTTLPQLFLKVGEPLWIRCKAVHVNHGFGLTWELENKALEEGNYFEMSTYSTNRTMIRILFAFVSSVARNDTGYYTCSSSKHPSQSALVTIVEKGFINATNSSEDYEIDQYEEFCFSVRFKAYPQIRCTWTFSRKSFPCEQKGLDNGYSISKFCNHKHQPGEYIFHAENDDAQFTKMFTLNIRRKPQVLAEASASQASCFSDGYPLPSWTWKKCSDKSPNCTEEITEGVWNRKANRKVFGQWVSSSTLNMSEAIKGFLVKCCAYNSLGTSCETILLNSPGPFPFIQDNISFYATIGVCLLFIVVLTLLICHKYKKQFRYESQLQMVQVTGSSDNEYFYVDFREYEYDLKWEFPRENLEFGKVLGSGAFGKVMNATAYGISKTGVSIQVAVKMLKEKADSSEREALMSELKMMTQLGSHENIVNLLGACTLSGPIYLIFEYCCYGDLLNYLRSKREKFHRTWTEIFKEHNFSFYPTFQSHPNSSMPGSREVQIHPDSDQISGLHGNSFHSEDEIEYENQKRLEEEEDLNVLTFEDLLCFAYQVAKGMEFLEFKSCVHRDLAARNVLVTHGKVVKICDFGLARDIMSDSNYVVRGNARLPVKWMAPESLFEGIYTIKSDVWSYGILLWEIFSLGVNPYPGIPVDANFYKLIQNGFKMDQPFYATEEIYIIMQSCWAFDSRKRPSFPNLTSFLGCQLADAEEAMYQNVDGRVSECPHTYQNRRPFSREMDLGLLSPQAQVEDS
T12 sequence (P08631 whole entry): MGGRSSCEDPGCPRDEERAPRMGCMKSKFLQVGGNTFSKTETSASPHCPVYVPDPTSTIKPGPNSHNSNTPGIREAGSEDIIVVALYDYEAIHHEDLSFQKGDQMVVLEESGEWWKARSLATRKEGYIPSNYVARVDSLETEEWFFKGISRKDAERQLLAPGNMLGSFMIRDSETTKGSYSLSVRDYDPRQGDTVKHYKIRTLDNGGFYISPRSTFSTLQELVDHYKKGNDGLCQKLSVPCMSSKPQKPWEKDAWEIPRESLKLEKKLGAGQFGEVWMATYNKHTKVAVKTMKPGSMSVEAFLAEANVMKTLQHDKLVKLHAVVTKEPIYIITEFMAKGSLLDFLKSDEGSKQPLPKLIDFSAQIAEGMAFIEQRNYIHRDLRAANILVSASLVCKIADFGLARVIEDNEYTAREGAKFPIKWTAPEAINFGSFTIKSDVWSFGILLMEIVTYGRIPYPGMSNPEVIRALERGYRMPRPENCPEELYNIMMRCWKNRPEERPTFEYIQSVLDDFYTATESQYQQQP
T13 sequence (P30291 whole entry): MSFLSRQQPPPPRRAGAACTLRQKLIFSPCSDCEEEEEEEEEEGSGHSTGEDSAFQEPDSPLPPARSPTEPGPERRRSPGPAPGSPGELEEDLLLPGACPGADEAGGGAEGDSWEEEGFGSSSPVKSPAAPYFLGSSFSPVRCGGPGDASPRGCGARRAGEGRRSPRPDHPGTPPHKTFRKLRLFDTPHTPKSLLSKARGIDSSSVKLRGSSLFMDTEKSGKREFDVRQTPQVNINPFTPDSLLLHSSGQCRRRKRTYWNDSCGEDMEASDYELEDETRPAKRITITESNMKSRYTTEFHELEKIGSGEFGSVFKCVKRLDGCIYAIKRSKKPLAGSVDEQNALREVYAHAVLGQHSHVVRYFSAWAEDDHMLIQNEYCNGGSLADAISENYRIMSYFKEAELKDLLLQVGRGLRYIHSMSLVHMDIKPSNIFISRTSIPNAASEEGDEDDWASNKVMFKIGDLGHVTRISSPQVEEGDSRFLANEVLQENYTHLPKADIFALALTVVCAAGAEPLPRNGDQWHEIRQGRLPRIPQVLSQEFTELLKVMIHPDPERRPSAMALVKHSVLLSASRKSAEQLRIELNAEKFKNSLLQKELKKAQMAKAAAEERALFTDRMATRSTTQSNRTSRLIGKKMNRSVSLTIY

In the case of `Nc1ncnc2c1c(-c1ccc(Oc3ccccc3)cc1)nn2C[C@@H]1SSC[C@@H]1O` [SAB298, (3S, 4S)-3-((4-amino-3-(4-phenoxyphenyl)-1H-pyrazolo[3,4-d]pyrimidin-1-yl)methyl)-1,2-dithiolan-4-ol], the MITF levels [1] is reported as “suppressed MITF levels in four out of seven melanoma cell lines”, the “phospho-ERBB2 Y1196 level” value [2] is reported as “suppressed phospho-ERBB2 Y1196” and the IC50 ([3]; EGFR in YUSIK lysate) is reported as 530 nM. It also gave an IC50 ([3]; EGFR in YUSIV lysate) of 1300 nM, an IC50 ([4]; MEK5 in YUSIK lysate) of 1500 nM and an IC50 ([4]; MEK5 in YUSIV lysate) of 370 nM. The IC50 ([5]; ERBB3 in YUSIK lysate) was 240 nM, the IC50 ([5]; ERBB3 in YUSIV lysate) was 290 nM and the IC50 [6] was greater than 10000 nM. The IC50 [7] was greater than 10000 nM, the IC50 [8] was 1200 nM and the IC50 [9] was 78 nM. The IC50 [10] was 6.5 nM, the IC50 [11] was 4140 nM and the IC50 [12] was 71 nM. It also gave an IC50 [13] greater than 10000 nM, an IC50 [14] of 16.3 nM and an IC50 [15] greater than 10000 nM. It also gave an IC50 [16] of 35.5 nM, an IC50 [17] of 2800 nM and an IC50 [18] of 21.7 nM.

Reference: publication PMC6481345, “A novel anti-melanoma SRC-family kinase inhibitor” (Oncotarget, 2019)
